# Data taken from patent publication US20110071075A1, “PROMOTER FOR BICARBONATE SECRETION IN GASTROINTESTINAL TRACT” (priority 2008, published 2011).
# Entries after “also recorded” stand apart in the source; their conditions may differ. *1 amine or outer side, *2 acyl side, *3 side chain or, on linkers, in order; H or OH if unused. Where no end group is shown, it is not given here. [ ]: non-standard residue; d: D form. γGlu = O=C(O)[C@H](CCC(=O)[*:2])N[*:1]
# Legend:
# gastric mucosal D cells = assay: Somatostatin secretion of cultured fractionated gastric mucosal D cells (somatostatin ELISA); assay type: cell-based, male SD rat; settings: 90 minutes culture
# Experimental: The abdomen of each male SD rat was opened in the midline under anesthesia to remove the stomach. The stomach was ligated at the cardiac region and at the junction between the gastric body and the pylorus, and the pyloric region was excised. After that, the stomach was everted so that the luminal side is exposed outside. To the inside of the stomach, Buffer A containing 2.5 mg/ml protease (Sigma P6911, Protease, From Streptomyces griseus, 5.5 unit/mg solid) was injected to prepare a balloon. The balloon was shaken at 37° C. for 30 minutes in Buffer A for 30 minutes and in Buffer B for 30 minutes×three times. After that, the balloon was stirred three times in Buffer B containing 0.5 mg/ml DNase, the detached cells were centrifuged and then suspended in Buffer C. After the cell suspension had been filtered with a filter, cells were fractionated and collected with an elutriator manufactured by Hitachi, Ltd.
# Repeated fractionation was conducted using an elutriator in accordance with Example 3 to collect D cells with high purity. After centrifugation, the cells were suspended in a cell culture medium (D-MEM/F-12 containing 10% FBS) and cultured in a CO2 incubator ([…]+5% CO2, 37° C.) (6×10^5 cells/250 μL/well). After 2-day culture, to the D cells washed with PBS was added each of CaSR agonists (20 μM cinacalcet (CCT), 20 μM γ-EVG, 10 mM phenylalanine (Phe), and 10 mM histidine (His)) mixed in a culture buffer (122 mM NaCl, 5 mM KCl, 25 mM NaHCO3, 1.3 mM MgSO4, 2 mM CaCl2, 15 mM HEPES, and 20 mM glucose, pH 7.4), and the cells were cultured for 90 minutes. After that, a culture supernatant was collected, filtered with a filter, and then measured for its somatostatin concentration with a somatostatin ELISA kit (manufactured by Phoenix, Calif.).
# The somatostatin secretion was measured in accordance with the method of Example 4. After 2-day culture, to the D cells washed with PBS was added a CaSR agonist (20 μM γ-EVG), sodium glutamate (60 mM MSG), or a mixed solution thereof, mixed in a culture buffer (122 mM NaCl, 5 mM KCl, 25 mM NaHCO3, 1.3 mM MgSO4, 2 mM CaCl2, 15 mM HEPES, and 20 mM glucose, pH 7.4), and the cells were cultured for 90 minutes. After that, the culture supernatant was collected, filtered with a filter, and then the somatostatin concentration was measured by a somatostatin ELISA kit (Phoenix, Calif.).
# duodenum = assay: Bicarbonate secretion in the duodenum loop of anesthetized rats (pH-stat method); assay type: in vivo, male SD rats
# Experimental: (§1) The bicarbonate secretion was evaluated in accordance with the methods of Aihara et al. (Aihara, E. et al. 2005. J. Pharmacol. Exp. Ther. 315: 423-432) and Kagawa et al. (Kagawa, S. et al. 2003. Digestive Diseases and Sciences 48: 1850-1856).
# As for the bicarbonate secretion in the duodenum, the abdomen of each of male SD rats was opened under anesthesia, and a duodenum loop having a length of 1.7 cm from the pyloric ring of the stomach was prepared. The lumen of the loop was perfused with physiological saline saturated with 100% O2 gas (flow rate: 1 ml/min)
# (§2) A drug was administered into the gastric or duodenal lumen after the bicarbonate secretion at the baseline had been measured for 30 minutes, and the bicarbonate secretion amount was measured every 10 minutes.
# The abdomens of male SD rats were opened under anesthesia, and a duodenum loop having a length of 1.7 cm from the pyloric ring of the stomach was prepared. The lumen of the loop was perfused with physiological saline saturated with 100% O2 gas (flow rate: 1 ml/min).
# After the bicarbonate secretion at the baseline had been measured for 30 minutes, distilled water for injection containing γ-EVG (100 mg/kg) or distilled water for injection (normal) was administered into the duodenal lumen, and the bicarbonate secretion amount was measured every 10 minutes.
# stomach = assay: Bicarbonate secretion in the stomach of anesthetized rats (ex-vivo chamber, pH-stat method); set-up: species or system male SD rats; settings: 10 mg/kg administered into the gastric lumen; omeprazole 60 mg/kg i.p. to inhibit acid secretion
# Experimental: as §1
# The bicarbonate secretion in the stomach was measured as described below. The abdomen of each of male SD rats was opened in the midline under anesthesia with urethane (1.25 g/kg/5 ml, intraperitoneal administration) to expose the stomach. The stomach was left to stand still in an ex-vivo chamber (Tamura Seisakusho; 3.1 cm^2) and perfused with physiological saline saturated with 100% O2 gas. In order to inhibit acid secretion, 60 mg/kg omeprazole was intraperitoneally administered. The bicarbonate secretion was continuously measured by dropping 2 mM HCl to a perfusate until an end point of pH 7.0 by employing a pH-stat method (TOA, AUT-501).
# as §2
# [1] = test system: histamine-induced gastric acid secretion; assay: Histamine-induced gastric acid secretion in the removed, perfused stomach (pH-stat method); set-up: species or system male ddY mice; settings: for histamine-induced gastric acid secretion: 100 μM histamine
# Experimental: A model prepared in accordance with the method reported by Horie et al. (British Journal of Pharmacology 1994; 112: 87-92) was used as a model for histamine-induced gastric acid secretion. That is, 6-week-old male ddY mice were fasted for 18 hours, and the stomach was removed from each of the mice under anesthesia with urethane (1.25 g/kg/10 ml, intraperitoneal administration). A polyethylene cannula was inserted at each of the pyloric and esophageal sides of the stomach, and the stomach was left to stand still in an organ bath filled with a buffer (118.1 mM NaCl, 4.8 mM KCl, 1.0 mM KH2PO4, 16.0 mM Na2HPO4, 1.2 mM MgSO4, 0.65 mM CaCl2, and 31.6 mM glucose, saturated with 95% O2/5% CO2 gas, 37° C.). The intragastric pressure was kept at 15 cmH2O, and the lumen of the stomach was perfused with a buffer (135.8 mM NaCl, 4.8 mM KCl, 1.2 mM MgSO4, 1.3 mM CaCl2, and 31.6 mM glucose, pH 5.4, saturated with 95% O2/5% CO2 gas, 37° C.) at a flow rate of 1 ml/min
# The acid secretion amount was continuously measured by dropping 10 mM NaOH to a perfusate until an end point of pH 5.4 by employing a pH-stat method (TOA, AUT-501). The intragastric acid secretion amount during no stimulation was measured for 30 minutes, and then the remove stomach left to stand still in the organ bath was treated with 100 μM histamine and cinacalcet (1.26, 12.6, and 126 μM). The gastric acid secretion amount was titrated for up to 90 minutes. The Dunnett's test was used as a statistical test for an effect of cinacalcet.
# The gastric acid secretion was measured in accordance with the method of Example 2.
# NSAID-induced enteritis = assay: NSAID (loxoprofen)-induced enteritis, damaged area in the small intestine; assay type: in vivo, rats; settings: 30 minutes before loxoprofen 60 mg/kg oral, 24 hours
# Experimental: To non-fasting rats, distilled water for injection containing cinacalcet (1, 3, 10, and 100 mg/kg) or γ-EVG (100 mg/kg), or distilled water for injection (control) was orally administered. After 30 minutes, loxoprofen (60 mg/kg) was orally administered, and the rats were left to stand for 24 hours. 1 ml of 1% (w/w) Evans Blue dye was intravenously administered, and after 30 minutes, the rats were euthanized under deep ether anesthesia. The small intestine (from the duodenum to the ileum) of each of the rats was removed, then immersed in 2% formalin for 10 minutes so that the small intestine might be fixed from the serosal side, and incised from the opposite side of the mesentery, and the damaged area in the small intestine (mm^2) was measured with a dissecting microscope of 10 times power. The t-test or Dunnett's test was used for a statistical test and p<0.05 was considered significant.
compound,measurement,setting,value
"N[C@@H](Cc1c[nH]cn1)C(=O)O [His, histidine]",somatostatin secretion,gastric mucosal D cells; 10 mM,remarkably promoted
"N[C@@H](CCC(=O)[O-])C(=O)[O-].[Na+].[Na+] [MSG, sodium glutamate]",somatostatin secretion,gastric mucosal D cells; 60 mM MSG,remarkably inhibited
"N[C@@H](Cc1ccccc1)C(=O)O [Phe, phenylalanine]",somatostatin secretion,gastric mucosal D cells; 10 mM,remarkably promoted
"C[C@@H](NCCCc1cccc(C(F)(F)F)c1)c1cccc2ccccc12.Cl [cinacalcet, (R)—N-(3-(3-trifluoromethylphenyl)propyl)-1-(1-naphthyl)ethylamine hydrochloride]",bicarbonate secretion in the duodenum,duodenum; 10 mg/kg administered into the duodenal lumen,promoted
same,somatostatin secretion,gastric mucosal D cells; 20 μM,remarkably promoted
same,bicarbonate secretion in the stomach,stomach,promoted
same,histamine-induced gastric acid secretion,[1]; 12.6 μM cinacalcet,inhibited
same,histamine-induced gastric acid secretion,"[1]; cinacalcet 1.26, 12.6 and 126 μM",inhibited histamine-induced gastric acid secretion dose-dependently
same,histamine-induced gastric acid secretion,[1]; concentration of 126 μM,completely inhibited
same,damaged area in the small intestine,"NSAID-induced enteritis; 1, 3, 10 and 100 mg/kg oral",reduced the damaged area dose-dependently
NCCc1c[nH]cn1 [histamine],gastric acid secretion,[1]; 100 μM histamine alone,promoted
same,acid secretion amount,"[1]; 100 μM histamine stimulation, 0.5 to 0.8 nEq/10 min during no stimulation",about 3.2 nEq/10 min
[γGlu]-Val-Gly [γ-EVG],bicarbonate secretion in the duodenum,duodenum; 100 mg/kg administered into the duodenal lumen,promoted
same,somatostatin secretion,gastric mucosal D cells; 20 μM,remarkably promoted; also recorded: markedly promoted
same,damaged area in the small intestine,NSAID-induced enteritis; 100 mg/kg oral,reduced the damaged area
